Values quoted from earlier work as cited in patent US9119854B2, “Methods for treating cancer using combination therapy” (CELGENE CORPORATION, priority 2013, dated 2015).

What was measured:
CRBN = CRBN (Homo sapiens, UniProt Q96SW2); conditions: in vitro; Ito et al., Science 2010
BTK = BTK (Homo sapiens, UniProt Q06187); conditions: enzymatic and cellular assays; the '610 publication
BTK, sequence (Q06187 whole entry, species assumed): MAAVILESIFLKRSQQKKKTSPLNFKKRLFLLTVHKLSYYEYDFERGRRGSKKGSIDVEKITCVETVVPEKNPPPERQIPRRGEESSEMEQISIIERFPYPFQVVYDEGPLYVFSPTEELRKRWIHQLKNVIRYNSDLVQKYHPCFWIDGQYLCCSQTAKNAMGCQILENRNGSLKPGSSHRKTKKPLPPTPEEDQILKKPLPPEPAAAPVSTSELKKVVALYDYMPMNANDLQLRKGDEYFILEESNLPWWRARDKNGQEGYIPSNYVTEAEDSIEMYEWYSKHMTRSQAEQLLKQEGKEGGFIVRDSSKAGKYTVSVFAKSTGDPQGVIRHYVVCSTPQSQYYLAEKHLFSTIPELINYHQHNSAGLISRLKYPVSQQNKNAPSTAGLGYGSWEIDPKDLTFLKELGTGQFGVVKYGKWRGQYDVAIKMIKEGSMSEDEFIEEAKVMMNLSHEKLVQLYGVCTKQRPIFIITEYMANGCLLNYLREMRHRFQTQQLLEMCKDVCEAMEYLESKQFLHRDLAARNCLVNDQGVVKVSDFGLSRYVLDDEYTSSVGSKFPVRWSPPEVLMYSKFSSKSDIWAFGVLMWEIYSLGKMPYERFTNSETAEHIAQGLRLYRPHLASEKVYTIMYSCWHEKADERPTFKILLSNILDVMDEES

CRBN, sequence (Q96SW2 whole entry): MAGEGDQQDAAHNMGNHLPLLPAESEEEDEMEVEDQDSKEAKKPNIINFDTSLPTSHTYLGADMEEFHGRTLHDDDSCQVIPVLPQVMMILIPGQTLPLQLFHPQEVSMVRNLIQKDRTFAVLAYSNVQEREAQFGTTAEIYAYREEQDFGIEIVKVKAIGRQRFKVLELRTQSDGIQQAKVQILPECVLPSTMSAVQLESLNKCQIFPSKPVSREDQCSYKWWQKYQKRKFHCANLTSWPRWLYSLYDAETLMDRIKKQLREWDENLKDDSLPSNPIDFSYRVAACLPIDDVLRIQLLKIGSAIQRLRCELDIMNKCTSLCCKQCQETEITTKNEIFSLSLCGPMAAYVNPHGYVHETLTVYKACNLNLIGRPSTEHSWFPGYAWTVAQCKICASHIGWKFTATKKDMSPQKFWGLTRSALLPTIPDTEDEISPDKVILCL
CRBN, sequence (Q16531 whole entry partner): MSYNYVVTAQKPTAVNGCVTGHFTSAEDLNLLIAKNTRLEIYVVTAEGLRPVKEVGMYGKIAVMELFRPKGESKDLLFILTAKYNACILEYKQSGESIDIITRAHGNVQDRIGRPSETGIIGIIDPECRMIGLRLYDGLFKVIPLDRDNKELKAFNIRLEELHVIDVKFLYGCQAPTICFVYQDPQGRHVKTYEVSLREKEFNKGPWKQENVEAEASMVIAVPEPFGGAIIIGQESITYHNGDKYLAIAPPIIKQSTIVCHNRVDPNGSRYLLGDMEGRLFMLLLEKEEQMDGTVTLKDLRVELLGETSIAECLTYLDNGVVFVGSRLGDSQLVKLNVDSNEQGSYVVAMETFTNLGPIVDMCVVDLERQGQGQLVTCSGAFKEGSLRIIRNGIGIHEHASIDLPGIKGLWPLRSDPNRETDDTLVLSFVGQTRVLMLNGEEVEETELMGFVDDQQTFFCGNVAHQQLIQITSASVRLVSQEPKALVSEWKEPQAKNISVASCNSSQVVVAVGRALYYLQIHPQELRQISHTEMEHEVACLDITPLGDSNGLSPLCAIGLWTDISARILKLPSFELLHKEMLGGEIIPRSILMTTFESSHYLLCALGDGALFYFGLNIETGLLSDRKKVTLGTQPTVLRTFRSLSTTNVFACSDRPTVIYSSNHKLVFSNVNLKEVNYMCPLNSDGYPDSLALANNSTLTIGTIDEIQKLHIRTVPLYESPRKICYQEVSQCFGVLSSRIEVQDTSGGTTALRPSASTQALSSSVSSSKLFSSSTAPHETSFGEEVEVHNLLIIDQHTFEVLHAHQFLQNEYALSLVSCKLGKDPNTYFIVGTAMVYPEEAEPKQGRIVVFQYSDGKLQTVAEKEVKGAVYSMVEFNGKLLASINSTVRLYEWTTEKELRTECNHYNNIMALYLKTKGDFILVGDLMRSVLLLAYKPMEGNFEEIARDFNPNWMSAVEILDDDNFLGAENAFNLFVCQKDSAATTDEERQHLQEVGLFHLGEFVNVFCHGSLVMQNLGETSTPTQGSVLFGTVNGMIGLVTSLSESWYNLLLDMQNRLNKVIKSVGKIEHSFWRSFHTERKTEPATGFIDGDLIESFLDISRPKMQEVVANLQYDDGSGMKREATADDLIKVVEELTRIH
CRBN, sequence (Q13619 whole entry partner): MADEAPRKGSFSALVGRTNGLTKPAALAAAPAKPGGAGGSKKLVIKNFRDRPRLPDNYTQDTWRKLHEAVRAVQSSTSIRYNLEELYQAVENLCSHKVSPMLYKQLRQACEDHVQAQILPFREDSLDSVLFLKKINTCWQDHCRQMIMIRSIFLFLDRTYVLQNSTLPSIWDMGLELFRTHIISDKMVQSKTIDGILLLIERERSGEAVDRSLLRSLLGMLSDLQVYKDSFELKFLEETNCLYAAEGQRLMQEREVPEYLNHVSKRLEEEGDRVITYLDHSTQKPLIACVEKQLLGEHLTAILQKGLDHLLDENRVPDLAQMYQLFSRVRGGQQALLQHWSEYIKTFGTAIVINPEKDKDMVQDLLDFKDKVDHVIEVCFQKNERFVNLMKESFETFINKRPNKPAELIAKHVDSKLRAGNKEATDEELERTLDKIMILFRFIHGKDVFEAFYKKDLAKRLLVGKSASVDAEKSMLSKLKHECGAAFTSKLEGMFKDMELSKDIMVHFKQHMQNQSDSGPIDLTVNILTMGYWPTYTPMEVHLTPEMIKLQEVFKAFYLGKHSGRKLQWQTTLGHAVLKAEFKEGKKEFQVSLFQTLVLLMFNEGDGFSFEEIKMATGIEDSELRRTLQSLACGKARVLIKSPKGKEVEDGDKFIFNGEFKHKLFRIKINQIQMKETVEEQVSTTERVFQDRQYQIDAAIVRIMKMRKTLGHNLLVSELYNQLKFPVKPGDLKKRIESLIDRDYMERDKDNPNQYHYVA
CRBN, sequence (P62877 whole entry partner): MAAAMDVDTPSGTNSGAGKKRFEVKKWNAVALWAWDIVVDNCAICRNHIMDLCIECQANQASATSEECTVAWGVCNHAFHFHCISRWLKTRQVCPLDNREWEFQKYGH

auto-ubiquitination of CRBN (CRBN)	inhibition of BTK (BTK)	SMILES	B-cell proliferation and activation (B-cell)
able to inhibit		O=C1CCC(N2C(=O)c3ccccc3C2=O)C(=O)N1 (stereo not drawn) [thalidomide]	
	covalent, irreversible inhibition	C=CC(=O)Nc1cccc(Nc2nc(Nc3ccc(OCCOC)cc3)ncc2F)c1 [Compound AA, N-(3-(5-fluoro-2-(4-(2-methoxyethoxy)phenylamino)pyrimidin-4-ylamino)phenyl)acrylamide]	found to inhibit
